According to the NIST ThermoML archive (doi:10.1016/j.tca.2012.10.004):

Legend:
[1] = 101 kPa, Liquid, Pycnometric method
[2] = refractive index (Na D-line) (dimensionless); settings: 101.33 kPa, Liquid, Standard Abbe refractometry
[3] = relative permittivity at zero frequency (dimensionless); settings: 101 kPa, Liquid, Coaxial cylinder capacitor
[4] = refractive index (Na D-line) (dimensionless); xn = mol fraction of the nth substance listed; settings: 101 kPa, Liquid, Standard Abbe refractometry, x2 = 0
[5] = xn = mol fraction of the nth substance listed; settings: 101 kPa, Liquid, Pycnometric method, x2 = 0
[6] = relative permittivity at zero frequency (dimensionless); xn = mol fraction of the nth substance listed; settings: 101 kPa, Liquid, Coaxial cylinder capacitor, x2 = 0

CN(CCO)CCO [N-methyldiethanolamine]
Settings	mass density, [1] [kg/m3]	refractive index, [2]	relative permittivity at zero frequency, [3]
293.15 K	1041.6	1.46935	22.9
298.15 K	1037.9	1.46724	22.4
303.15 K	1034.1	1.46532	21.8
308.15 K	1030.3	1.4631	21.3
313.15 K	1026.5	1.46074	20.8
318.15 K	1022.7	1.45892	20.3
323.15 K	1018.9	1.45708	19.8
328.15 K	1015	1.45513	19.3

O=S1(=O)CCCC1 [sulfolane]
Settings	mass density, [1] [kg/m3]	refractive index, [2]	relative permittivity at zero frequency, [3]
293.15 K	1270.8	1.4854	44.5
298.15 K	1266.5	1.4836	44
303.15 K	1262	1.4814	43.4
308.15 K	1257.6	1.4796	42.8
313.15 K	1253.2	1.478	42.2
318.15 K	1248.7	1.4762	41.6
323.15 K	1244.2	1.4744	41.1
328.15 K	1240.3	1.4726	40.4

O=S1(=O)CCCC1 [sulfolane] + CN(CCO)CCO
Settings	mass density, [5] [kg/m3]	refractive index, [4]	relative permittivity at zero frequency, [6]
293.15 K	1270.8	1.4854	44.5
298.15 K	1266.5	1.4836	44
303.15 K	1262	1.4814	43.4
308.15 K	1257.6	1.4796	42.8
313.15 K	1253.2	1.478	42.2
318.15 K	1248.7	1.4762	41.6
323.15 K	1244.2	1.4744	41.1
328.15 K	1240.3	1.4726	40.4
